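Dose response: 5 concentrations. Exposure: 48 h. Format: 96-well plates. Endpoint: linear interpolation; highest concentration if not reached. GI50: concentration for 50% inhibition of growth. TGI denotes the concentration required for complete inhibition of growth.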
What was measured:
Test in all cases: growth of human tumour cells (NCI), 48 h
[1] = tested on: HCC-2998 colon
[2] = tested on: HOP-62 NSCLC
[3] = tested on: NCI-H460 lung
[4] = tested on: OVCAR-3 ovarian
[5] = tested on: EKVX NSCLC
[6] = tested on: NCI/ADR-RES ovarian
[7] = tested on: OVCAR-8 ovarian
[8] = tested on: SK-MEL-28 melanoma
[9] = tested on: CCRF-CEM leukemia
[10] = tested on: ACHN renal
[11] = tested on: COLO 205 colon
[12] = tested on: NCI-H522 lung
[13] = tested on: A549 NSCLC
[14] = tested on: HL-60(TB) leukemia
[15] = tested on: HCT-15 colon
[16] = tested on: MDA-MB-468 breast
[17] = tested on: 786-0 renal
[18] = tested on: PC-3 prostate
[19] = tested on: RXF 393 renal
[20] = tested on: SNB-75 CNS
[21] = tested on: SF-268 CNS
[22] = tested on: SNB-19 CNS
[23] = tested on: SW-620 colon
[24] = tested on: NCI-H226 lung
[25] = tested on: U251 CNS
[26] = tested on: NCI-H23 lung
[27] = tested on: SF-539 CNS
[28] = tested on: UO-31 renal
[29] = tested on: SF-295 CNS
[30] = tested on: MDA-MB-435
[31] = tested on: MCF7 breast
[32] = tested on: KM12 colon
[33] = tested on: SK-MEL-5 melanoma
[34] = tested on: DU-145 prostate
[35] = tested on: RPMI-8226 leukemia
[36] = tested on: HS 578T breast
[37] = tested on: HT29 colon
[38] = tested on: OVCAR-4 ovarian
[39] = tested on: UACC-257 melanoma
[40] = tested on: K-562 leukemia
[41] = tested on: IGROV1 ovarian
[42] = tested on: HCT-116 colon
[43] = tested on: CAKI-1 renal
[44] = tested on: SK-OV-3 ovarian
[45] = tested on: UACC-62 melanoma
[46] = tested on: MALME-3M melanoma
[47] = tested on: OVCAR-5 ovarian
[48] = tested on: SN12C renal
[49] = tested on: T-47D breast
[50] = tested on: TK-10 renal
[51] = tested on: SK-MEL-2 melanoma
[52] = tested on: LOX IMVI melanoma
[53] = tested on: MOLT-4 leukemia
[54] = tested on: BT-549 breast
[55] = tested on: MDA-MB-231 breast
[56] = tested on: M14 melanoma
[57] = tested on: A498 renal
[58] = tested on: HOP-92 NSCLC

## Cc1ccccc1[C@H]1C(C(=O)c2ccc(Cl)cc2)C2(N[C@@H]1c1ccccc1)C(=O)Nc1ccccc12 (stereo partly specified)
[1]
  GI50: 5.95 µM
  TGI: 12.2 µM
[2]
  GI50: 6.26 µM
  TGI: 13 µM
[3]
  GI50: 6.15 µM
  TGI: 14.9 µM
[4]
  GI50: 1.64 µM
  TGI: 7.17 µM
[5]
  GI50: 4.96 µM
  TGI: 17.2 µM
[6]
  GI50: 4.41 µM
  TGI: 10.8 µM
[7]
  GI50: 6.05 µM
  TGI: 13.4 µM
[8]
  GI50: 5.91 µM
  TGI: 11.7 µM
[9]
  GI50: 4.8 µM
  TGI: 26.8 µM
[10]
  GI50: 6.46 µM
  TGI: 14.8 µM
[11]
  GI50: 7.31 µM
  TGI: 13.8 µM
[12]
  GI50: 4.46 µM
  TGI: 11.5 µM
[13]
  GI50: 5.81 µM
  TGI: 20.4 µM
[14]
  GI50: 8.01 µM
  TGI: 30.4 µM
[15]
  GI50: 5.11 µM
  TGI: 14.1 µM
[16]
  GI50: 0.957 µM
  TGI: 2.74 µM
[17]
  GI50: 6.9 µM
  TGI: 16.3 µM
[18]
  GI50: 2.08 µM
  TGI: 10.5 µM
[19]
  GI50: 1.42 µM
  TGI: 6.02 µM
[20]
  GI50: 2.63 µM
  TGI: 14.5 µM
[21]
  GI50: 5.73 µM
  TGI: 17.1 µM
[22]
  GI50: 8.35 µM
  TGI: 26.6 µM
[23]
  GI50: 5.54 µM
  TGI: 13.8 µM
[24]
  GI50: 5.91 µM
  TGI: 12.1 µM
[25]
  GI50: 5.56 µM
  TGI: 13.1 µM
[26]
  GI50: 5.67 µM
  TGI: 12.2 µM
[27]
  GI50: 6.95 µM
  TGI: 13.6 µM
[28]
  GI50: 4.6 µM
  TGI: 10.8 µM
[29]
  GI50: 5.3 µM
  TGI: 13.2 µM
[30]
  GI50: 3.65 µM
  TGI: 9.28 µM
[31]
  GI50: 2.26 µM
  TGI: 12.4 µM
[32]
  GI50: 6.73 µM
  TGI: 16.2 µM
[33]
  GI50: 5.25 µM
  TGI: 10.6 µM
[34]
  GI50: 4.91 µM
  TGI: 12.8 µM
[35]
  GI50: 7.66 µM
  TGI: 28.3 µM
[36]
  GI50: 4.76 µM
  TGI: 15.3 µM
[37]
  GI50: 3.42 µM
  TGI: 11.4 µM
[38]
  GI50: 6.08 µM
  TGI: 16.2 µM
[39]
  GI50: 5.81 µM
  TGI: 15.3 µM
[40]
  GI50: 5.11 µM
  TGI: 42.3 µM
[41]
  GI50: 5.63 µM
  TGI: 14 µM
[42]
  GI50: 2.46 µM
  TGI: 8.7 µM
[43]
  GI50: 3.62 µM
  TGI: 11.6 µM
[44]
  GI50: 7.41 µM
  TGI: 31.5 µM
[45]
  GI50: 2.78 µM
  TGI: 8.48 µM
[46]
  GI50: 6 µM
  TGI: 11.6 µM
[47]
  GI50: 4.37 µM
  TGI: 9.67 µM
[48]
  GI50: 4.92 µM
  TGI: 10.1 µM
[49]
  GI50: 4.91 µM
  TGI: 11.6 µM
[50]
  GI50: 6.86 µM
  TGI: 15.8 µM
[51]
  GI50: 5.83 µM
  TGI: 12.1 µM
[52]
  GI50: 2.51 µM
  TGI: 7.97 µM
[53]
  GI50: 4.14 µM
  TGI: 33 µM
[54]
  GI50: 5.47 µM
  TGI: 11 µM
[55]
  GI50: 4.31 µM
  TGI: 9.35 µM
[56]
  GI50: 5.62 µM
  TGI: 11.7 µM
[57]
  GI50: 6.77 µM
  TGI: 12.9 µM
[58]
  GI50: 2.47 µM
  TGI: 8.55 µM

— PubChem BioAssay (NCI)
